Data from patent US11578136B2, “Compositions and methods for treating cancer” (INNATE PHARMA, priority 2017, dated 2023).

System: monocyte-derived DC (moDC)
Assay: Activation of dendritic cells in presence of ATP (flow cytometry)
Format: cell-based, human
Conditions: ATP at 0.125 mM, 0.25 mM or 0.5 mM; I-394 at 10 μg/ml
Method: While ATP has pro-inflammatory, CD39-mediated catabolism of ATP is believed to be able to impair dendritic cell (DC) activation, in turn altering a broader adaptive immune response against tumor antigen. In order to evaluate whether CD39 blockade using anti-CD39 antibodies could overcome CD39-mediated alteration of dendritic cell (DC) activation in the presence of ATP, we incubated monocyte-derived DC (moDC) with anti-CD39 antibodies in the presence of ATP.
Briefly, human monocytes were purified from human healthy blood and differentiated into MoDC in presence of GM-CSF and IL-4 during 6 days. […] In some cases, MoDC were preincubated during 1 hours in presence of CD39 inhibitor: […] (Tocris, 250 μM), CD73 inhibitor: APCP (Tocris 50 μM), anti-CD39 blocking antibody I-394 or BY40 (for BY40 see WO2009/095478), or anti-CD73 blocking antibodies. LPS (Invivogen, 10 ng/ml) was used as positive control. To assess resulting effect of ATP-mediated DC activation on CD4 T cells activation, ATP-activated DC were washed and then incubated with allogenic CD4 T cells (ratio 1 MoDC/4 T cells) for a mixed lymphocytes reaction (MLR) during 5 days. T cells activation and proliferation were analyzed through CD25 expression and Cell Trace Violet dilution by flow cytometry (FIG. 8).

For “I-394: anti-CD39 antibody, VH SEQ ID NO: 6, VL SEQ ID NO: 7; human IgG1 Fc with L234A/L235E/G237A/A330S/P331S”, the “ATP-induced moDC activation as assessed by HLA-DR or CD83 expression” value was “permitted moDC activation”.
